Measured values reported in article PMC6960228, “Ethoxysanguinarine, a Novel Direct Activator of AMP-Activated Protein Kinase, Induces Autophagy and Exhibits Therapeutic Potential in Breast Cancer Cells” (Frontiers in Pharmacology, 2020).

What was measured:
[1] = system: LC3-II and Beclin-1 in MCF-7, MDA-MB-231, and MDA-MB-436 cells; assay: Western blot of autophagy markers; type: cell-based, human; conditions: Eth 2.4, 2.0 or 2.0 µM and 3-MA 1 mM, 24 h
Experimental: Cells were lysed in radioimmunoprecipitation assay buffer containing 50 mM Tris, pH 8.0, 150 mM NaCl, 0.1% SDS, 0.5% sodium deoxycholate, 1% NP-40, 1 mM DTT, 1 mM NaF, 1 mM sodium orthovanadate, 1 mM phenylmethylsulfonyl fluoride (PMSF; Sigma-Aldrich; Merck KGaA), and 1% protease inhibitors cocktail (EMD Millipore, Billerica, MA, USA). Protein concentration was determined using the Bradford method. Equal amounts of sample (25 µg) were separated by SDS-PAGE (8–12% gels). Electrophoresed proteins were then transferred onto polyvinylidene fluoride membranes (EMD Millipore, Billerica, MA, USA). The membranes were blocked with 5% skimmed milk in Tris-buffered saline at room temperature for 1 h. Following blocking, membranes were incubated overnight at 4°C with primary antibodies and then rinsed with Tris-buffered saline with Tween 20. […]
(§1) Figure 2 Eth induces autophagy in BC cells. […] (C): MCF-7, MDA-MB-231, or MDA-MB-436 cells transfected with pQCXIP-GFP-LC3 plasmid were treated with increasing concentrations of Eth for 24 h, and assessed by immunoﬂuorescence analyses. […] (D): MDA-MB-231 or MDA-MB-436 cells transfected with pQCXIP-GFP-LC3 plasmid were treated with Eth (2.0 µM) and/or 3-MA (1 mM) for 24 h, and assessed by immunoﬂuorescence analyses. […] (F): MCF-7, MDA-MB-231, or MDA-MB-436 cells were treated with Eth (3.5 µM, 3.0 µM, or 3.0 µM) and/or 3-MA (1 mM) for 24 h and analyzed by MTT assay. […]

[2] = system: LC3 redistribution to autophagosomes in BC cells; assay: GFP-LC3 autophagy assay (confocal microscopy); type: cell-based, human; conditions: 24 h
Excerpt: The cells were transfected with pQCXIP-GFP-LC3 plasmid using the Lipofectamine 3000 (Invitrogen; Thermo Fisher Scientific, Inc.) according to the recommended protocol by the manufacturer and then fixed in 4% paraformaldehyde. The percentage of cells with fluorescent dots representing GFP-LC3 translocation was counted. For visualization of cell nucleus, DAPI was used. Sections were observed using an Olympus laser scanning confocal microscope with imaging software (Olympus Fluoview FV-1000, Tokyo, Japan).
Figure 2 Eth induces autophagy in BC cells. (A): MCF-7, MDA-MB-231, or MDA-MB-436 cells were treated with increasing concentrations of Eth for 24 h. Western blot was performed using antibodies indicated. GAPDH was used as the loading control. (B): MCF-7 (MDA-MB-231 or MDA-MB-436) cells were treated with 2.4 µM (2.0 µM or 2.0 µM) Eth for the indicated times, and cell lysates were subjected to western blot assay. (C): MCF-7, MDA-MB-231, or MDA-MB-436 cells transfected with pQCXIP-GFP-LC3 plasmid were treated with increasing concentrations of Eth for 24 h, and assessed by immunoﬂuorescence analyses. Scale bar = 20 µm. (D): MDA-MB-231 or MDA-MB-436 cells transfected with pQCXIP-GFP-LC3 plasmid were treated with Eth (2.0 µM) and/or 3-MA (1 mM) for 24 h, and assessed by immunoﬂuorescence analyses. Scale bar = 20 µm. […] (F): MCF-7, MDA-MB-231, or MDA-MB-436 cells were treated with Eth (3.5 µM, 3.0 µM, or 3.0 µM) and/or 3-MA (1 mM) for 24 h and analyzed by MTT assay. (G): MCF-7, MDA-MB-231, or MDA-MB-436 cells were treated with Eth (2.4 µM, 2.0 µM, or 2.0 µM) and/or 3-MA (1 mM) for 24 h, and western blot was performed using antibodies indicated. *P < 0.05.
(§2) Figure 3 Eth induces autophagy through the AMPK/mTORC1 signaling. […] (D): MDA-MB-231 or MDA-MB-436 cells transfected with pQCXIP-GFP-LC3 plasmid were treated with Eth (2.0 µM) and/or CC (25 µM) for 24 h, and assessed by immunoﬂuorescence analyses. […] (G): MDA-MB-231 or MDA-MB-436 cells transfected with pQCXIP-GFP-LC3 plasmid were treated with Eth (1.0 µM or 1.6 µM) and/or Met (10 mM) for 24 h, and assessed by immunoﬂuorescence analyses. […]

[3] = system: MCF-7, MDA-MB-231, or MDA-MB-436 cells; assay: MTT assay, Eth and/or 3-MA; type: cell-based, human; conditions: Eth 3.5, 3.0 or 3.0 µM and 3-MA 1 mM, 24 h
Experimental: (§3) Cells were seeded into 96-well plate and pre-cultured for 24 h, then treated with Eth for 24. Cell cytotoxicity was determined by MTT assay. The absorbance was measured at 490 nm by automated microplated reader (BioTek Instruments, Inc., Winooski, VT, USA), and the cell death rate was calculated as followed: inhibition rate (%) = (average A490 of the control group − average A490 of the experimental group)/(average A490 of the control group − average A490 of the blank group) × 100%. Cell viability was estimated by trypan blue dye exclusion.
as §1, with “cells. (A): MCF-7, MDA-MB-231, or MDA-MB-436 cells were treated with increasing concentrations of Eth for 24 h. Western blot was performed using antibodies indicated. GAPDH was used as the loading control.” for “cells.”

[4] = system: MCF-7; assay: MTT cytotoxicity assay; type: cell-based; conditions: Homo sapiens, MCF7, MCF-7, 24 h
Excerpt: (§4) Human BC cell lines MCF-7, MDA-MB-231, DMA-MB-436, SK-BR3, MDA-MB-468, MDA-MB-453, and MDA-MB-435S and non-tumorigenic MCF-10A human mammary epithelial cells were obtained from American Type Culture Collection (ATCC; Manassas, VA, USA). MCF-7, SK-BR3, MDA-MB-231, and MDA-MB-436 cells were maintained in Dulbecco’s modified Eagle’s medium (DMEM; high glucose; Gibco; Thermo Fisher Scientific, Inc., Waltham, MA, USA) supplemented with 10% fetal bovine serum (FBS; HyClone; Logan, UT, USA) and antibiotics and incubated in a humidified atmosphere with 5% CO2 at 37°C. MDA-MB-468, MDA-MB-453, and MDA-MB-435S cells were maintained in Leibovitz’s L-15 (Gibco) supplemented with 10% FBS and antibiotics and incubated in a humidified atmosphere without CO2 at 37°C. MCF-10A cells were maintained in DMEM/F12 medium containing 5% horse serum (HS), insulin ([…]), epidermal growth factor (EGF, 20 ng/mL), choleratoxin ([…]), hydrocortisone ([…]), penicillin (50 U/mL), and streptomycin (50 U/mL), and incubated in a humidified atmosphere with CO2 at 37°C.
as §3

[5] = system: MDA-MB-231; assay: MTT cytotoxicity assay; type: cell-based; conditions: Homo sapiens, MDA-MB-231, 24 h
Excerpt: as §4, §3

[6] = system: MDA-MB-436; assay: MTT cytotoxicity assay; type: cell-based; conditions: Homo sapiens, MDA-MB-436, 24 h
Excerpt: as §4, §3

[7] = system: AMPKα; assay: Streptavidin agarose affinity assay; type: binding, human; conditions: cells treated with 4 μM Bio-Eth for 12 h
Experimental: Cell pellets were lysed and the supernatant collection was incubated with indicated antibodies overnight at 4°C, after which protein A/G Plus beads (Santa Cruz Biotechnology) were added and incubated at 4°C for 4 h. The beads were washed 4 times in NETN buffer (1% NP-40, 2 mM EDTA, 40 mM Tris-HCl, 137 mM NaCl, pH 7.4), resuspended in SDS-PAGE loading buffer and boiled for 5 min. For streptavidin agarose affinity assay, cells upon Bio-Eth were lysed; the lysates were incubated with streptavidin agarose, washed and boiled in SDS-PAGE loading buffer. […] Western blot assays were performed.
Figure 4 Eth is a direct activator of AMPK. (A): MCF-7, MDA-MB-231, or MDA-MB-436 cells were treated with increasing concentrations of Eth for 24 h, and AMPK activity assay was performed. (B): The binding mode of Eth docked into AMPK. (C): The binding mode of Eth docked into AMPK. α subunit is green, β subunit is cyan, γ subunit is magenta and Eth is gold. (D): Details of the binding site of Eth in the ADaM site of AMPK. The main residues involved in drug interactions are shown as labeled green sticks. α subunit is green, β subunit is cyan. The pSER-108 was shown in stick and colored by gold. (E) The interaction pattern of Eth with the residues. […] (H): Viability of MCF-7, MDA-MB-231 or MDA-MB-436 cells exposed to Biotin-Eth as determined by MTT assay. […]

[8] = system: AMPK/mTORC1 signaling in MCF-7, MDA-MB-231, and MDA-MB-436 cells; assay: Western blot of AMPK/mTORC1 signaling; type: cell-based, human; conditions: 24 h
Experimental: Cells were lysed in radioimmunoprecipitation assay buffer containing 50 mM Tris, pH 8.0, 150 mM NaCl, 0.1% SDS, 0.5% sodium deoxycholate, 1% NP-40, 1 mM DTT, 1 mM NaF, 1 mM sodium orthovanadate, 1 mM phenylmethylsulfonyl fluoride (PMSF; Sigma-Aldrich; Merck KGaA), and 1% protease inhibitors cocktail (EMD Millipore, Billerica, MA, USA). Protein concentration was determined using the Bradford method. Equal amounts of sample (25 µg) were separated by SDS-PAGE (8–12% gels). Electrophoresed proteins were then transferred onto polyvinylidene fluoride membranes (EMD Millipore, Billerica, MA, USA). The membranes were blocked with 5% skimmed milk in Tris-buffered saline at room temperature for 1 h. Following blocking, membranes were incubated overnight at 4°C with primary antibodies and then rinsed with Tris-buffered saline with Tween 20. The following primary antibodies were used: anti-Glut3 (1:500; catalog no. sc-74399) (Santa Cruz Biotechnology, Inc., Dallas, TX, USA); anti-LC3 (1:1000; catalog no. 12741), anti-AMPKα (1:1000; catalog no. 2532), anti-phospho-AMPKα (Thr172) (1:1000; catalog no. 2535), anti-phospho-AMPKβ1 (Ser108) (1:1000; catalog no. 4181), anti-AMPKγ1 (1:1000; catalog no. 4187), anti-mTOR (1:1000; catalog no. 2983), anti-phospho-mTOR (Ser2448) (1:1000; catalog no. 5536), anti-P70S6K (1:1000; catalog no. 9202), anti-phospho-P70S6K (Thr389) (1:1000; catalog no. 92775), anti-4E-BP1 (1:1000; catalog no. 9234), anti-phospho-4E-BP1 (Thr37/46) (1:1000; catalog no. 2855), anti-ACC (1:1000; catalog no. 3676), anti-phospho-ACC ([…]) (1:1000; catalog no. 11818), anti-Glut1 (1:1000; catalog no. 12939), anti-Glut4 (1:1000; catalog no. 2213) (All Cell Signaling Technology, Inc., Danvers, MA, USA), and anti-GAPDH (1:5000; catalog no. M20006; Abmart, Shanghai, China). Membranes were then washed, and incubated with horseradish peroxidase-conjugated secondary antibody (1:10000; E030120-01 and E030110-01; EarthOx, LLC, San Francisco, CA, USA) for 1.5 h at room temperature. The protein bands were visualized using SuperSignal® West Pico PLUS Chemiluminescent substrate (catalog no. 34579; Pierce; Thermo Fisher Scientific, Inc., Rockford, IL, USA) ([Zhang et al., 2018]).
as §2, with “signaling. (A): MCF-7, MDA-MB-231, or MDA-MB-436 cells were treated with increasing concentrations of Eth for 24 h. Western blot was performed using antibodies indicated.” for “signaling.”

Cn1cnc(=N)c2[nH]cnc21 [3-MA]
effect of 3-MA on upregulation of LC-3II and Beclin1 by Eth [1]: antagonized the upregulation of autophagy-related proteins LC-3II and Beclin1
effect of 3-MA on induction of autophagy by Eth ([2]; Eth 2.0 µM and 3-MA 1 mM): antagonize the induction of autophagy by Eth
effect of 3-MA on cell proliferation inhibited by Eth [3]: significantly reversed the cell proliferation inhibited by Eth

CN1c2c(ccc3cc4c(cc23)OCO4)-c2ccc3c(c2C1OC(=O)CCCCC1SCC2NC(=O)NC21)OCO3 (stereo not shown) [Bio-Eth]
IC50 [4]: 3.78 µM
IC50 [5]: 3.74 µM
IC50 [6]: 3.71 µM
pull-down of AMPKα by streptavidin agarose [7]: AMPKα was pulled down by streptavidin agarose

c1cc(-c2cnn3cc(-c4ccc(OCCN5CCCCC5)cc4)cnc23)ccn1 [CC, reference compound]
effect of CC on LC-3II expression and autophagic vacuoles in Eth-treated cells ([2]; Eth 2.0 µM and CC 25 µM): reversed the increased LC-3II expression and number of autophagic vacuoles
effect of CC on Eth-induced reduction in mTORC1 phosphorylation ([8]; Eth 2.4, 2.0 or 2.0 µM and CC 25 µM): reversed the reduction in phosphorylation

CN(C)C(=N)N=C(N)N [metformin, reference compound]
effect of metformin co-treatment on Eth action on mTORC1 phosphorylation and autophagy ([8]; Eth 1.6, 1.0 or 1.6 µM and Met 10 mM): enhanced the effect of Eth on the phosphorylation of mTORC1 and autophagy
